13 compounds from patent publication US20260297085A1, “1 H-PYRROLO[2,3-B]PYRIDIN-4-YL]-2-OXOPYRROLIDINE-3-CARBONITRILE DERIVATIVES AS TYROSINE KINASE 2 (TYK2) INHIBITORS FOR THE TREATMENT OF INFLAMMATORY DISEASES” (BIOGEN MA INC., priority 2023, published 2026) can be followed below.

The target of assay [1] is T1, human TYK2 kinase domain (JH1) (Homo sapiens, UniProt P29597).
T1 construct: recombinantly generated catalytic kinase (also known as JH1) domain of human JAK1, JAK2, JAK3 and TYK2
T1 sequence (P29597 897-1176 limits assumed): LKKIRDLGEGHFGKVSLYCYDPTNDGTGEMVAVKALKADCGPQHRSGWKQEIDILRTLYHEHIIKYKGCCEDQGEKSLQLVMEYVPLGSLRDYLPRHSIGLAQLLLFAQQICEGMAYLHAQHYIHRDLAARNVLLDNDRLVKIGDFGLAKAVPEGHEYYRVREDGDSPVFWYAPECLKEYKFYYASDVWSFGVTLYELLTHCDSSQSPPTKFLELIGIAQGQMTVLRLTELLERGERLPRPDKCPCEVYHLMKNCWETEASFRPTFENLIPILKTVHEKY
The experiment in a line: JH1 biochemical assay for TYK2 (ADP-Glo kinase assay, recombinant JH1 catalytic domain, JAK3-974 peptide, 10 μM ATP). To be noted: TYK2 JH1, ADP-Glo. In a few lines:
(§1)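 Enzyme levels: JAK1 4 nM, JAK2 0.2 nM, JAK3 0.3 nM, TYK2 2 nM. Peptide substrate at 50 μM. Reactions ran 100 minutes; ADP formed was converted to luciferase luminescence after ATP depletion. Compounds tested from 10 μM or 1 μM top, 11-point 3-fold dilutions; IC50 from 4-parameter logistic fit of normalized percent activity.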
(In general: ADP-Glo turns the ADP formed in a reaction into a luminescent signal.)

Assay [2] has as its target JAK1 kinase activity on STAT3 in TF1 cells (Homo sapiens, UniProt P23458). The experiment in a line: pSTAT3 cell assay (MSD; TF1 cells, 30 ng/mL IL-6 stimulation). The format is cell-based. The note with it: 30 ng/mL IL-6, 15 minutes. The essentials: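 Serum-starved TF1 cells with endogenous JAK1/STAT3 were pretreated 1 h with compound in a 10-point four-fold dilution series from 10 μM, then stimulated with 30 ng/mL IL-6 for 15 min. pSTAT3 in lysates was quantified by MSD immunoassay, and IC50 came from 4-parameter logistic fits.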

For assay [3], the target named is T2, human JAK2 kinase domain (JH1) (Homo sapiens, UniProt O60674).
T2 construct: recombinantly generated catalytic kinase (also known as JH1) domain of human JAK1, JAK2, JAK3 and TYK2
The experiment in a line: JH1 biochemical assay for JAK2 (ADP-Glo kinase assay, recombinant JH1 catalytic domain, JAK3-974 peptide, 15 μM ATP). To be noted: JAK2 JH1, ADP-Glo. In a few lines:
as §1

Assay [4] has as its target T3, human JAK1 kinase domain (JH1) (Homo sapiens, UniProt P23458).
T3 construct: recombinantly generated catalytic kinase (also known as JH1) domain of human JAK1, JAK2, JAK3 and TYK2
The experiment in a line: JH1 biochemical assay for JAK1 (ADP-Glo kinase assay, recombinant JH1 catalytic domain, JAK3-342 peptide, 35 μM ATP). The note with it: JAK1 JH1, ADP-Glo. In a few lines:
as §1

For assay [5], the target named is T4, human JAK3 kinase domain (JH1) (Homo sapiens, UniProt P52333).
T4 construct: recombinantly generated catalytic kinase (also known as JH1) domain of human JAK1, JAK2, JAK3 and TYK2
The experiment in a line: JH1 biochemical assay for JAK3 (ADP-Glo kinase assay, recombinant JH1 catalytic domain, JAK3-974 peptide, 4 μM ATP). To be noted: JAK3 JH1, ADP-Glo. The essentials:
as §1

In assay [6] the target is JAK2 kinase activity on STAT5 in TF1 cells (Homo sapiens, UniProt O60674). The experiment in a line: pSTAT5 cell assay (MSD; TF1 cells, 30 ng/mL IL-3 stimulation). The format is cell-based. To be noted: 30 ng/mL IL-3, 15 minutes. In a few lines: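 Serum-starved TF1 cells with native JAK2/STAT5 were pretreated 1 h with compound (10-point four-fold dilutions from 10 μM), then stimulated 15 min with 30 ng/mL IL-3. pSTAT5 in lysates quantified by MSD immunoassay; normalized percent activity fitted to a 4-parameter logistic curve for IC50.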

Assay [7] addresses Tyk2 kinase activity on STAT4 in NK92 cells (Homo sapiens, UniProt P29597). The experiment in a line: pSTAT4 cell assay (MSD; NK92 cells, 30 ng/mL IL2 stimulation). It is filed as cell-based. The note with it: 30 ng/mL IL2, 15 minutes. The essentials: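 NK92, serum-starved; cpd 1 hr, 10-pt 4-fold from 10 μM; IL2 30 ng/mL 15 min; lyse; MSD with anti-STAT4 Abs; IC50 by 4-PL fit.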

Structures are written as SMILES.

T2 sequence (O60674 849-1124 limits assumed): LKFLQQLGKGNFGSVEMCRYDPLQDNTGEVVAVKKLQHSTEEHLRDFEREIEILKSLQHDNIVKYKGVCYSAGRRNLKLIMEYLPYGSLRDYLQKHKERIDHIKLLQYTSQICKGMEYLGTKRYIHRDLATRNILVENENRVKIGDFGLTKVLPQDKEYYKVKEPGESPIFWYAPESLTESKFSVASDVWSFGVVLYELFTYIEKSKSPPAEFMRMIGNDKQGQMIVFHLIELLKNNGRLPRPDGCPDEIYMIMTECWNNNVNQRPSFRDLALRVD
Sequence of JAK1 kinase activity on STAT3 in TF1 cells (P23458 whole entry): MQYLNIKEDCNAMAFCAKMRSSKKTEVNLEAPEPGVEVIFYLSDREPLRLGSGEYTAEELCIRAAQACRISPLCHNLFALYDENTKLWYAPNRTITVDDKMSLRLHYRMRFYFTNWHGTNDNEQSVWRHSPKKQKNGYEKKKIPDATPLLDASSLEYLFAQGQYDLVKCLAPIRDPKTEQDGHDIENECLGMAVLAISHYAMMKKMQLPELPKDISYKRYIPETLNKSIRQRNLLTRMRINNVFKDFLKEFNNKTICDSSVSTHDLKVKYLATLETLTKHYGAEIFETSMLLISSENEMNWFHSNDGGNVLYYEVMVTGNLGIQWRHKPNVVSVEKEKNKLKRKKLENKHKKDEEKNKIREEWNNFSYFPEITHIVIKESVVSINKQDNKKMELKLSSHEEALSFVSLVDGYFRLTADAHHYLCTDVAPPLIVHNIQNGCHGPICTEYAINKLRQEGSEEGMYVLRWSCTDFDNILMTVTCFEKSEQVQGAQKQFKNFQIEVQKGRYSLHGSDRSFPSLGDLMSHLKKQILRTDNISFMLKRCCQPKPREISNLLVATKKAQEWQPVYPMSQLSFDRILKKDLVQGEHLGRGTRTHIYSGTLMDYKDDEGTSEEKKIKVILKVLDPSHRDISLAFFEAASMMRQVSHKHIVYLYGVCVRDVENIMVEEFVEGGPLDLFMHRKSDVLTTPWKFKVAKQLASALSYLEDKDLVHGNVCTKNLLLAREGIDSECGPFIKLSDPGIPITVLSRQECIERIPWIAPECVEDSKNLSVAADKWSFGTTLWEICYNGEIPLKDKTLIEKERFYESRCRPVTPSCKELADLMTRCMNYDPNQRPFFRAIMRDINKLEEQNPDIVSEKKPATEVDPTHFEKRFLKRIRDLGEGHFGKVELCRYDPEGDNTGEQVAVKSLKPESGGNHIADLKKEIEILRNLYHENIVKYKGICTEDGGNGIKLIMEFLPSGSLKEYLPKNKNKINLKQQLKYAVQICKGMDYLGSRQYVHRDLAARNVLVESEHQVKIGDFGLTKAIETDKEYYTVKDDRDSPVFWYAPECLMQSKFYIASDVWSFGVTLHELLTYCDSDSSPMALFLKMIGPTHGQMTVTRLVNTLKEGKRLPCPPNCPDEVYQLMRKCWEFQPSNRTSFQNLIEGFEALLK
Sequence of JAK2 kinase activity on STAT5 in TF1 cells (O60674 whole entry): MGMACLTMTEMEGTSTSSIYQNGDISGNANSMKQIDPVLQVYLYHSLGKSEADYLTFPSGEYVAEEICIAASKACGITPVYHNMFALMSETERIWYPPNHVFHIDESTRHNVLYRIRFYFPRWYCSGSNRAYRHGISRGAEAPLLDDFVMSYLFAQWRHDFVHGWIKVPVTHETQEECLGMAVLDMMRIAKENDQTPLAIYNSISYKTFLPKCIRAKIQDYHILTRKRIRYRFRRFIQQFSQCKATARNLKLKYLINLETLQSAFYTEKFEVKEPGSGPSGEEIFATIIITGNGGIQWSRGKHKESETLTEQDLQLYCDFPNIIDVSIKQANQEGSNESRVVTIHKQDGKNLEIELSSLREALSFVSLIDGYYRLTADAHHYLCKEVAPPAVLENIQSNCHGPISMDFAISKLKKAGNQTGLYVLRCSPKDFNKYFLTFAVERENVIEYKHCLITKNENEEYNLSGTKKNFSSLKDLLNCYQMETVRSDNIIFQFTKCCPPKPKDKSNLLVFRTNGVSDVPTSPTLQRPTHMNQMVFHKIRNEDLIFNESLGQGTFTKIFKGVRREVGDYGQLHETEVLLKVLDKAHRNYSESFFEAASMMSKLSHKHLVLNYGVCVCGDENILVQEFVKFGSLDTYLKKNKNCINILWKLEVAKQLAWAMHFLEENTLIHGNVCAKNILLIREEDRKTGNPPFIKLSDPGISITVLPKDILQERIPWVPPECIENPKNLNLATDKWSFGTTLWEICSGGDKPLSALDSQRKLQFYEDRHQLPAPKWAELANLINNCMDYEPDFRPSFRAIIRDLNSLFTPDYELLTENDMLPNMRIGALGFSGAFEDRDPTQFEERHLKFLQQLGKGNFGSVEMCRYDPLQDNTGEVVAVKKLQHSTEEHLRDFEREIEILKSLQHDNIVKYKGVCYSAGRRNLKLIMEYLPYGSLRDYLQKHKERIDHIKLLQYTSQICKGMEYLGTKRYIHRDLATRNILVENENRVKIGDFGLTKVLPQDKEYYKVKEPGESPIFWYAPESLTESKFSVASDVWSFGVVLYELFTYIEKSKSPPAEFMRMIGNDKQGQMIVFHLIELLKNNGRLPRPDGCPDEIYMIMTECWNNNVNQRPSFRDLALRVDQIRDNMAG
Sequence of Tyk2 kinase activity on STAT4 in NK92 cells (P29597 whole entry): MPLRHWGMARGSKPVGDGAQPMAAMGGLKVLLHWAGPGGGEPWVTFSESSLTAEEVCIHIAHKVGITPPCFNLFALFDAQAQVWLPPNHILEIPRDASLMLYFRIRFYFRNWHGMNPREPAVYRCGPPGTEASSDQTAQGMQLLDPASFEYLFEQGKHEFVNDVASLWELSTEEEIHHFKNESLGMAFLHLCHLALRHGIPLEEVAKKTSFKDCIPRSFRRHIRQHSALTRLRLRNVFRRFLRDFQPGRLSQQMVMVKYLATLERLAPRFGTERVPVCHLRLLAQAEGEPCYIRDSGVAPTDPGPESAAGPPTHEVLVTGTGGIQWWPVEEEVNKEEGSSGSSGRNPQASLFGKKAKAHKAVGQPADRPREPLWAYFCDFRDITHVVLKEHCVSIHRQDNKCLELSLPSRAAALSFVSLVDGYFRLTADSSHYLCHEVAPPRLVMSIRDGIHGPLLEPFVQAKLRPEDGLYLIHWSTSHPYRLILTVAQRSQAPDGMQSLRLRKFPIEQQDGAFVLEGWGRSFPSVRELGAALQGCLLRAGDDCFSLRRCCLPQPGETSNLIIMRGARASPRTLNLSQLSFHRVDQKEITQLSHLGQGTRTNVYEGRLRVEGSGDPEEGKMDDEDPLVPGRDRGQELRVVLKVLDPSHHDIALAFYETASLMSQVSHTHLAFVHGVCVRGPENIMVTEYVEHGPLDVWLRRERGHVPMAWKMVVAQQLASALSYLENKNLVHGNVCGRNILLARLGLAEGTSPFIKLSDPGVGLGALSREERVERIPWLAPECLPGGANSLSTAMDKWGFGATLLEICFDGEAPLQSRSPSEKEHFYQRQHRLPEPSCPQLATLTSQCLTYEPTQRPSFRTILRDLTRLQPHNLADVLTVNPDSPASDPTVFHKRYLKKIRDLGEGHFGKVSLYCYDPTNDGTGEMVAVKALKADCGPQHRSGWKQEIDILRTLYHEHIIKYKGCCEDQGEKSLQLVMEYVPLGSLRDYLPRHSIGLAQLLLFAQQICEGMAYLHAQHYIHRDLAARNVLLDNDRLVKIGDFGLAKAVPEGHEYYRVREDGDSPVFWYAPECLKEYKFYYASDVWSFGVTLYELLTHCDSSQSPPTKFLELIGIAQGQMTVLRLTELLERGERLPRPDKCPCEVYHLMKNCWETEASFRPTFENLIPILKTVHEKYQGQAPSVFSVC
T4 sequence (P52333 822-1111 limits assumed): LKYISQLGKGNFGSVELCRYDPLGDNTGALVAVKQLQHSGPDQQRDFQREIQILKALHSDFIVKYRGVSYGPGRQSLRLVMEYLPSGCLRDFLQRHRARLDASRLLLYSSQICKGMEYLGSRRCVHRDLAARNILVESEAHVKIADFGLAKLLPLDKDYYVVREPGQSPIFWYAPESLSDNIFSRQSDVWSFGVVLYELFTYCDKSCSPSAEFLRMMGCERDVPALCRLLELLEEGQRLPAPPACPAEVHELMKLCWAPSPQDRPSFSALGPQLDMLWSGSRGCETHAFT
T3 sequence (P23458 875-1153 limits assumed): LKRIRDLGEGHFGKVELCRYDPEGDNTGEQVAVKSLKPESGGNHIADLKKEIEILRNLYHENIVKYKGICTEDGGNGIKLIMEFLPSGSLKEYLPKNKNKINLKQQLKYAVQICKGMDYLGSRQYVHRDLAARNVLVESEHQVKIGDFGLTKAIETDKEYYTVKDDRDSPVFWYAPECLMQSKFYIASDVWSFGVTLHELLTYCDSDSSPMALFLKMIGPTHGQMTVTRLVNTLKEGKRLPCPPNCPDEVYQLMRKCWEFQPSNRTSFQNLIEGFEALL

The IC50 is the concentration that gives 50% inhibition. `C[C@@H]1CN(c2nn(-c3cnn(C)c3)c3cnccc23)C(=O)[C@]1(C#N)C1CC1` [Example 275, (3R,4S)-3-cyclopropyl-4-methyl-1-(1-(1-methyl-1H-pyrazol-4-yl)-1H-pyrazolo[3,4-c]pyridin-3-yl)-2-oxopyrrolidine-3-carbonitrile]: the IC50 in assay [1] was 5 to 20 nM; in assay [2], 5000 to 10000 nM; in assay [3] it was 1000 to 5000 nM; in assay [4], 100 to 1000 nM; in assay [5], 100 to 1000 nM; in assay [6], more than 10000 nM. The same compound came in with an IC50 in assay [7] of more than 100 nM.
With `C[C@@H]1CN(c2nn(-c3cnn(C(F)F)c3)c3cnccc23)C(=O)[C@]1(C#N)C1CC1` [Example 276, (3R,4S)-3-cyclopropyl-1-(1-(1-(difluoromethyl)-1H-pyrazol-4-yl)-1H-pyrazolo[3,4-c]pyridin-3-yl)-4-methyl-2-oxopyrrolidine-3-carbonitrile], the IC50 is 5 to 20 nM in assay [1]; 5000 to 10000 nM in assay [2]; 1000 to 5000 nM in assay [3]; 100 to 1000 nM in assay [4]; 100 to 1000 nM in assay [5]; more than 10000 nM in assay [6]. Further, the IC50 in assay [7] was more than 100 nM.
`CCn1cc(-n2nc(N3C[C@@H](C)[C@@](C#N)(C4CC4)C3=O)c3ccncc32)cn1` [Example 277, (3R,4S)-3-cyclopropyl-1-(1-(1-ethyl-1H-pyrazol-4-yl)-1H-pyrazolo[3,4-c]pyridin-3-yl)-4-methyl-2-oxopyrrolidine-3-carbonitrile]: the IC50 in assay [1] is less than 5 nM; in assay [2] it was 1000 to 5000 nM; in assay [3] it was 100 to 1000 nM; in assay [4] it was 100 to 1000 nM; in assay [5], 100 to 1000 nM; in assay [6], 5000 to 10000 nM. In addition, the IC50 in assay [7] was more than 100 nM.
With `C[C@@H]1CN(c2nn(-c3cnn(C4COC4)c3)c3cnccc23)C(=O)[C@]1(C#N)C1CC1` [Example 278, (3R,4S)-3-cyclopropyl-4-methyl-1-(1-(1-(oxetan-3-yl)-1H-pyrazol-4-yl)-1H-pyrazolo[3,4-c]pyridin-3-yl)-2-oxopyrrolidine-3-carbonitrile], the concentration for half-maximal inhibition (IC50) in assay [1] was less than 5 nM; in assay [2], 5000 to 10000 nM; in assay [3] it was 100 to 1000 nM; in assay [4], 100 to 1000 nM; in assay [5], 100 to 1000 nM; in assay [6], 5000 to 10000 nM. Further, the IC50 in assay [7] is more than 100 nM.
On to `CC(C)n1cc(-n2nc(N3C[C@@H](C)[C@@](C#N)(C4CC4)C3=O)c3ccncc32)cn1` [Example 280, (3R,4S)-3-cyclopropyl-1-(1-(1-isopropyl-1H-pyrazol-4-yl)-1H-pyrazolo[3,4-c]pyridin-3-yl)-4-methyl-2-oxopyrrolidine-3-carbonitrile], for which the IC50 was less than 5 nM in assay [1]; 1000 to 5000 nM in assay [2]; 100 to 1000 nM in assay [3]; 100 to 1000 nM in assay [4]; 100 to 1000 nM in assay [5]; more than 10000 nM in assay [6]. In assay [7], the IC50 was more than 100 nM.
Take `Cc1cc(-n2nc(N3C[C@@H](C)[C@@](C#N)(C4CC4)C3=O)c3ccncc32)ccn1` [Example 281, (3R,4S)-3-cyclopropyl-4-methyl-1-(1-(2-methylpyridin-4-yl)-1H-pyrazolo[3,4-c]pyridin-3-yl)-2-oxopyrrolidine-3-carbonitrile]: the IC50 is 5 to 20 nM in assay [1]; 1000 to 5000 nM in assay [2]; 1000 to 5000 nM in assay [3]; 100 to 1000 nM in assay [4]; 100 to 1000 nM in assay [5]; more than 10000 nM in assay [6]. Moreover, in assay [7], the IC50 is more than 100 nM.
For `C[C@@H]1CN(c2nc(-c3cnn(C)c3)cc3ncsc23)C(=O)[C@]1(C#N)C1CC1` [Example 284, (3R,4S)-3-cyclopropyl-4-methyl-1-(6-(1-methyl-1H-pyrazol-4-yl)thiazolo[5,4-c]pyridin-4-yl)-2-oxopyrrolidine-3-carbonitrile], the IC50 in assay [1] was less than 5 nM; in assay [2], less than 100 nM; in assay [3] it was less than 100 nM; in assay [4], less than 100 nM; in assay [5], less than 100 nM; in assay [6] it was less than 100 nM. In assay [7], this compound showed an IC50 of 5 to 20 nM.
Take `C[C@@H]1CN(c2c[nH]c3ncc(-c4cnn(C)c4)cc23)C(=O)[C@]1(C#N)C1CC1` [Example 288, (3R,4S)-3-cyclopropyl-4-methyl-1-(5-(1-methyl-1H-pyrazol-4-yl)-1H-pyrrolo[2,3-b]pyridin-3-yl)-2-oxopyrrolidine-3-carbonitrile]: the IC50 was 5 to 20 nM in assay [1]; 1000 to 5000 nM in assay [2]; less than 100 nM in assay [3]; 100 to 1000 nM in assay [4]; 100 to 1000 nM in assay [5]; 1000 to 5000 nM in assay [6]. This compound also came in with an IC50 in assay [7] of 50 to 100 nM.
Take `C[C@@H]1CN(c2nc(-c3cnn(C4CC5(COC5)C4)c3)cn3nccc23)C(=O)[C@]1(C#N)C1CC1` [Example 289, (3R,4S)-1-(6-(1-(2-oxaspiro[3.3]heptan-6-yl)-1H-pyrazol-4-yl)pyrazolo[1,5-a]pyrazin-4-yl)-3-cyclopropyl-4-methyl-2-oxopyrrolidine-3-carbonitrile]: the IC50 is less than 5 nM in assay [1]; less than 100 nM in assay [2]; less than 100 nM in assay [3]; less than 100 nM in assay [4]; less than 100 nM in assay [5]; less than 100 nM in assay [6]. The compound also returned an IC50 in assay [7] of 5 to 20 nM.
Consider `C[C@@H]1CN(c2nc(-c3cnn(C4CC(F)(F)C4)c3)cn3nccc23)C(=O)[C@]1(C#N)C1CC1` [Example 290, (3R,4S)-3-cyclopropyl-1-(6-(1-(3,3-difluorocyclobutyl)-1H-pyrazol-4-yl)pyrazolo[1,5-a]pyrazin-4-yl)-4-methyl-2-oxopyrrolidine-3-carbonitrile], for which the IC50 in assay [1] is less than 5 nM; in assay [2], 100 to 1000 nM; in assay [3], less than 100 nM; in assay [4], less than 100 nM; in assay [5], less than 100 nM; in assay [6], 100 to 1000 nM. The compound further had an IC50 in assay [7] of 20 to 50 nM.
In the case of `C[C@@H]1CN(c2nc(-c3cnn(C4COC4)c3)cn3ncc(F)c23)C(=O)[C@]1(C#N)C1CC1` [Example 291, (3R,4S)-3-cyclopropyl-1-(3-fluoro-6-(1-(oxetan-3-yl)-1H-pyrazol-4-yl)pyrazolo[1,5-a]pyrazin-4-yl)-4-methyl-2-oxopyrrolidine-3-carbonitrile], the half-maximal inhibitory concentration (IC50) in assay [1] is less than 5 nM; in assay [2], 1000 to 5000 nM; in assay [3], less than 100 nM; in assay [4], less than 100 nM; in assay [5] it was less than 100 nM; in assay [6], 1000 to 5000 nM. In assay [7], this compound gave an IC50 of 50 to 100 nM.
With `C[C@@H]1CN(c2nc(-c3cnn([C@H]4C[C@@H](C#N)C4)c3)cn3ncc(F)c23)C(=O)[C@]1(C#N)C1CC1` [Example 292, (3R,4S)-1-(6-(1-((1s,3S)-3-cyanocyclobutyl)-1H-pyrazol-4-yl)-3-fluoropyrazolo[1,5-a]pyrazin-4-yl)-3-cyclopropyl-4-methyl-2-oxopyrrolidine-3-carbonitrile], the IC50 in assay [1] was less than 5 nM; in assay [2], 100 to 1000 nM; in assay [3] it was less than 100 nM; in assay [4], less than 100 nM; in assay [5], less than 100 nM; in assay [6], 100 to 1000 nM. This compound also yielded a 50% inhibitory concentration (IC50) in assay [7] of 20 to 50 nM.
As for `C[C@@H]1CN(c2nc(-c3cnn([C@H]4C[C@H](C#N)C4)c3)cn3ncc(F)c23)C(=O)[C@]1(C#N)C1CC1` [Example 293, (3R,4S)-1-(6-(1-((1r,3R)-3-cyanocyclobutyl)-1H-pyrazol-4-yl)-3-fluoropyrazolo[1,5-a]pyrazin-4-yl)-3-cyclopropyl-4-methyl-2-oxopyrrolidine-3-carbonitrile], the IC50 in assay [1] is less than 5 nM; in assay [2], 100 to 1000 nM; in assay [3], less than 100 nM; in assay [4], less than 100 nM; in assay [5], less than 100 nM; in assay [6] it was 100 to 1000 nM. This compound gave an IC50 in assay [7] of 20 to 50 nM.
